According to ChEMBL document CHEMBL1139701, “A bioisosteric approach to the discovery of indole carbinol androgen receptor ligands” (Bioorg Med Chem Lett, 2006):

target: T1, Androgen receptor (Rattus norvegicus, UniProt P15207); experiment: Displacement of [3H]R1881 from rat androgen receptor
T1 sequence (P15207 whole entry): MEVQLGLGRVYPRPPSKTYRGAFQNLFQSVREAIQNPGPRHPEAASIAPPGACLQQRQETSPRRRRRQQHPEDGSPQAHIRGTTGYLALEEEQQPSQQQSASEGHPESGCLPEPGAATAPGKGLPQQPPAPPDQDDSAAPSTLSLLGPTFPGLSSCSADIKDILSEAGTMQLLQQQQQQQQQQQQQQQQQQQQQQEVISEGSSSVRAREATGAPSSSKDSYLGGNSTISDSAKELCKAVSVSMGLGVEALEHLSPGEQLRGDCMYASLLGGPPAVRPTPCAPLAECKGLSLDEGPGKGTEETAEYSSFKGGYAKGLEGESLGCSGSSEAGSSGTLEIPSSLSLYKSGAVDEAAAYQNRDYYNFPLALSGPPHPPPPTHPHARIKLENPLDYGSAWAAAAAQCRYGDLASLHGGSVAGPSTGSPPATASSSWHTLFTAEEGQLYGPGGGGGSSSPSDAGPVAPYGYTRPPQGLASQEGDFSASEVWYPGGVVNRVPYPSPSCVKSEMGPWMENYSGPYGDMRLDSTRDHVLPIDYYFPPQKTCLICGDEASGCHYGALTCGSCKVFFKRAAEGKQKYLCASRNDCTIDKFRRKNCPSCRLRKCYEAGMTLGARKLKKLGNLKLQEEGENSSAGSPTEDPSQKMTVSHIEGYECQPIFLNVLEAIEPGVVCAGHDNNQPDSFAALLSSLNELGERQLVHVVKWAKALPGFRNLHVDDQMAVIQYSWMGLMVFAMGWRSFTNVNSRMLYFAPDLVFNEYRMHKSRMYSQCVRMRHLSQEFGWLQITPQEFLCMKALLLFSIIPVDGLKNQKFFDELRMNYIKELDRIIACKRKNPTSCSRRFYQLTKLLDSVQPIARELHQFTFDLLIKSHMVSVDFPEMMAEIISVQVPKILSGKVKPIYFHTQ

Row | Structure (SMILES) | IC50 [nM]
1 | CC(O)(COC(=O)c1ccccc1C(F)(F)F)c1cc2cc(NC(=O)C(F)(F)F)c(C(F)(F)F)cc2[nH]1 (centres undefined) | 150
2 | CC(O)(CSc1ccc(Cl)c(Cl)c1)c1cc2cc([N+](=O)[O-])c(C(F)(F)F)cc2[nH]1 (centres undefined) | 1000
3 | CC(O)(COC(=O)c1ccccc1)c1cc2cc(C#N)c(C(F)(F)F)cc2[nH]1 (centres undefined) | 480
4 | CC(O)(CS(=O)(=O)c1ccc(F)cc1)c1cc2cc(C#N)c(C(F)(F)F)cc2[nH]1 (centres undefined) | > 6900
5 | Cc1ccc(C(=O)OCC(C)(O)c2cc3cc([N+](=O)[O-])c(C(F)(F)F)cc3[nH]2)cc1 (centres undefined) | 3000
6 | CN(C)c1ccc(C(=O)OCC(C)(O)c2cc3cc([N+](=O)[O-])c(C(F)(F)F)cc3[nH]2)cc1 (centres undefined) | 2600
7 | CC(O)(COC(=O)c1ccc(F)cc1)c1cc2cc(C#N)c(C(F)(F)F)cc2[nH]1 (centres undefined) | 1200
8 | CC(C)(C)c1ccc(C(=O)OCC(C)(O)c2cc3cc([N+](=O)[O-])c(C(F)(F)F)cc3[nH]2)cc1 (centres undefined) | 3600
9 | CC(O)(CSc1ccc(Cl)cc1)c1cc2cc(Cl)c(C(F)(F)F)cc2[nH]1 (centres undefined) | 180
10 | CC(O)(COC(=O)c1ccc([N+](=O)[O-])cc1)c1cc2cc([N+](=O)[O-])c(C(F)(F)F)cc2[nH]1 (centres undefined) | 1600
11 | COc1ccc(C(=O)OCC(C)(O)c2cc3cc([N+](=O)[O-])c(C(F)(F)F)cc3[nH]2)cc1 (centres undefined) | 6400
12 | CC(O)(CSc1ccccc1)c1cc2cc(Cl)c(C(F)(F)F)cc2[nH]1 (centres undefined) | 220

target: T2, Androgen receptor (Rattus norvegicus) (UniProt P15207); experiment: Displacement of [3H]R1881 from rat androgen receptor at 30 uM relative to control
T2 sequence (whole entry): T1 sequence (P15207 whole entry)

Row | Structure (SMILES) | inhibition [%]
13 | COC(=O)c1ccc2[nH]c(C(C)(O)CSc3ccc(Cl)cc3)cc2c1 (centres undefined) | < 50
14 | CC(O)(CSc1ccc(Cl)cc1)c1cc2ccccc2[nH]1 (centres undefined) | < 50
